How the values were obtained:
[1] = molecular target: T1, adenosine A1 (human) membrane (Homo sapiens, UniProt P30542); assay: A1 adenosine receptor radioligand binding assay ([3H] DPCPX); conditions: compound at 200 nM, radioligand [3H] DPCPX 1 nM
T1 construct: purchased PerkinElmer ES-010-M400UA
T1 sequence (P30542 1-326): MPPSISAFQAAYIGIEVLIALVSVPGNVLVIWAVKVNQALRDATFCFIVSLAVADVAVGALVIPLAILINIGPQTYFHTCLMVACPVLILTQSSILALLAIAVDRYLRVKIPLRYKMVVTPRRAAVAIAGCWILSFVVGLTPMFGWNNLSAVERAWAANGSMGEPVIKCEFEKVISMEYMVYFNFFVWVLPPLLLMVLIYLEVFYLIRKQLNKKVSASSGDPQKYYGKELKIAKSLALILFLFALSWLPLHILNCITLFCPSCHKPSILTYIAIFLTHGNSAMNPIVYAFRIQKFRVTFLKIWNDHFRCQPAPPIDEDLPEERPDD
Procedure: A second A1 adenosine receptor radioligand binding assay protocol was used. The protocol used adenosine A1 (human) membrane (PerkinElmer ES-010-M400UA) at a concentration of 2.5 μg/well/100 μl and the radioligand [3H] DPCPX (Cat No. PerkinElmer-NET974250UC) at a final concentration of 1 nM. Testing compounds were tested at a final concentration of 200 nM. CGS-15943, the reference compound, was tested in an 8-point 4-fold serial dilution, starting at a top concentration of 1 μM. 1 μl of compounds/high control/low control was transferred to the assay plate according to a plate map, followed by 100 μl of membrane stocks and 100 μl of radioligand, in assay buffer (25 mM HEPES, 5 mM MgCl2, 1 mM CaCl2, 100 mM NaCl, pH 7.4). The plate was sealed and incubated at RT for 1 hour. Unifilter-96 GF/C filter plates (Perkin Elmer Cat #6005174) were soaked with 50 μl of 0.3% PEI per well for at least 0.5 hour at room temperature. When the binding assays were completed, the reaction mixtures were filtered through GF/C plates using Perkin Elmer Filtermate Harvester, and each plate washed 4 times with cold wash buffer (25 mM HEPES, 5 mM MgCl2, 1 mM CaCl2, 100 mM NaCl, pH 7.4). The filter plates were dried for 1 hour at 50 degrees. After drying, the bottom of the filter plate wells was sealed, 50 μl of Perkin Elmer Microscint 20 cocktail was added, and the top of the filter plate was sealed. ^3H trapped on the filter was counted using Perkin Elmer MicroBeta2 Reader. The data were analyzed with GraphPad Prism 5 to obtain binding IC50 values for the reference compound. The “Inhibition [% Control]” was calculated using the equation: % Inh =(1−Background subtracted Assay value/Background subtracted HC value)*100, where HC is high control.

[2] = molecular target: T2, HEK-293 cells expressing human recombinant adenosine A2A receptor (Homo sapiens, UniProt P29274); assay: cAMP assay (Assay 2), A2A receptor; type: cell-based; conditions: HEK-293 cells expressing human A2A receptor
T2 construct: expressed in transfected cells; host or cells: HEK-293
T2 sequence (P29274 whole entry): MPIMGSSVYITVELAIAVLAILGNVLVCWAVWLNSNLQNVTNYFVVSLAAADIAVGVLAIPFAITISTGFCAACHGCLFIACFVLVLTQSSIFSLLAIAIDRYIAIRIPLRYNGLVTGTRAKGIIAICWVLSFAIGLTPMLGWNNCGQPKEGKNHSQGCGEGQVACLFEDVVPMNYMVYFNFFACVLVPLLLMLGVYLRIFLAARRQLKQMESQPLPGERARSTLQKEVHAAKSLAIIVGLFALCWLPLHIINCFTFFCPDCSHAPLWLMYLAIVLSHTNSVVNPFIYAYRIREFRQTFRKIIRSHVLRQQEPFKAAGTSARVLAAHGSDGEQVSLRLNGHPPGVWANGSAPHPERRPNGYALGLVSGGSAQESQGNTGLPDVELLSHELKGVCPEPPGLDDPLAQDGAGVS
Procedure: (§1) The functional activity of compounds was tested using Assay 2 below, to detect the presence of cAMP. Assay 1 is an alternative assay for this purpose. Activation of G-protein coupled receptors (such as A2A) results in activation of adenylyl cyclase which converts ATP into cAMP which is used as a downstream signaling molecule. Molecules which act as GPCR (or specifically A2A receptor) antagonists cause a decrease in intracellular cAMP concentration.
(§2) Assay 2 (Table B2): This assay used HEK-293 cells expressing human recombinant adenosine A2A receptor (or, alternatively, A1 receptor) that were grown prior to the test in media without antibiotic. 100 nL of test articles at 100× of final concentration were transferred to assay plate by Echo. Cells were washed twice with 5 mL of PBS and 10 μL of cells were mixed with 5 mL PBS. After aspirating the PBS and adding 1.5 mL versine, cells were incubated at 37° C. for 2-5 min. After centrifugation, 4 mL of medium was added and adjusted cell density to 5,000 cells/well with Stimulation Buffer. 10 μL of cells were aliquoted to the assay plate, centrifuged at 1000 rpm for 1 minute, and incubated for 60 minutes at room temperature. 5 μL 4× Eu-cAMP tracer solution and 5 μL 4× Ulight™-anti-cAMP solution were added to assay plate, followed by centrifugation and 60-minute incubation at room temperature. Plates were read on EnVision.

[3] = molecular target: T3, HEK-293 cells expressing human recombinant A1 receptor (Homo sapiens, UniProt P30542); assay: cAMP assay (Assay 2), A1 receptor; type: cell-based; conditions: HEK-293 cells expressing A1 receptor
T3 construct: expressed in transfected cells; host or cells: HEK-293
T3 sequence (P30542 1-326): T1 sequence (P30542 1-326)
Procedure: as §1, §2

[4] = molecular target: T4, adenosine A2a (human) membrane (Homo sapiens, UniProt P29274); assay: A2A adenosine receptor radioligand binding assay ([3H] CGS-21680); conditions: radioligand [3H] CGS-21680 6 nM
T4 construct: purchased PerkinElmer RBHA2AM400UA
T4 sequence (P29274 whole entry): as above
Procedure: A second A2A adenosine receptor radioligand binding assay protocol was used. The protocol used adenosine A2a (human) membrane (PerkinElmer RBHA2AM400UA) at a concentration of 5 μg/well/100 μl and the radioligand [3H] CGS-21680 (Cat No. PerkinElmer-NET1021250UC) at a final concentration of 6 nM. Testing compounds were diluted with DMSO to make 8-point 4-fold serial dilution, starting at 0.2 mM. CGS-15943 was the reference compound. 1 μl of compounds/high control/low control was transferred to the assay plate according to a plate map, followed by 100 μl of membrane stocks and 100 μl of radioligand, in assay buffer (50 mM Tris-HCl, 10 mM MgCl2, 1 mM EDTA, pH 7.4). The plate was sealed and incubated at RT for 2 hours. Unifilter-96 GF/C filter plates (Perkin Elmer Cat #6005174) were soaked with 50 μl of 0.3% PEI per well for at least 0.5 hour at room temperature. When the binding assays were completed, the reaction mixtures were filtered through GF/C plates using Perkin Elmer Filtermate Harvester, and each plate washed 4 times with cold wash buffer (50 mM Tris-HCl, 154 mM NaCl, pH 7.4). The filter plates were dried for 1 hour at 50 degrees. After drying, the bottom of the filter plate wells was sealed, 50 μl of Perkin Elmer Microscint 20 cocktail was added, and the top of the filter plate was sealed. ^3H trapped on the filter was counted using Perkin Elmer MicroBeta2 Reader. The data were analyzed with GraphPad Prism 5 to obtain binding IC50 values. The “Inhibition [% Control]” was calculated using the equation: % Inh=(1−Background subtracted Assay value/Background subtracted HC value)*100, where HC is high control.

Row | inhibition at 0.2 µM [1] [%] | IC50 [2] [µM] | IC50 [3] [µM] | IC50 [4] [µM] | SMILES
1 | 85 | 0.0184 | 0.0927 |  | CC(C)(O)c1cccc(COc2nc(-c3cc(Cl)c4ncccc4c3)c(-c3ccc(F)cc3)nc2N)n1 [Compound No. 58, 2-(6-(((3-amino-6-(8-chloroquinolin-6-yl)-5-(4-fluorophenyl)pyrazin-2-yl)oxy)methyl)pyridin-2-yl)propan-2-ol]
2 |  | 0.164 |  |  | Cc1ccn(-c2nc(N)c(OCc3cccc(C(C)(C)O)n3)nc2-c2cc(Cl)c3ncccc3c2)n1 [compound 1, 2-(6-(((3-amino-6-(8-chloroquinolin-6-yl)-5-(3-methyl-1H-pyrazol-1-yl)pyrazin-2-yl)oxy)methyl)pyridin-2-yl)propan-2-ol]
3 |  | 0.0151 | 0.0323 |  | CC(C)(O)c1cccc(COc2nc(-c3ccc4ncccc4c3)c(-c3ccccc3)nc2N)n1 [compound 2, 2-(6-(((3-amino-5-phenyl-6-(quinolin-6-yl)pyrazin-2-yl)oxy)methyl)pyridin-2-yl)propan-2-ol]
4 | 97 | 0.0196 | 0.0087 |  | CC(C)(O)c1cccc(Cn2cc(-c3nc(-c4ccc5ncccc5c4)c(-c4ccccc4)nc3N)nn2)n1 [compound 102, 2-(6-((4-(3-amino-5-phenyl-6-(quinolin-6-yl)pyrazin-2-yl)-1H-1,2,3-triazol-1-yl)methyl)pyridin-2-yl)propan-2-ol]
5 | 49 |  |  | 0.105 | C[C@H](c1ccccn1)N(C)C(=O)c1nc(-c2ccc3ncccc3c2)c(-c2ccccc2)nc1N [compound 119, (R)-3-amino-N-methyl-5-phenyl-N-(1-(pyridin-2-yl)ethyl)-6-(quinolin-6-yl)pyrazine-2-carboxamide]
6 | 90 |  |  | 0.065 | C[C@@H](c1ccccn1)N(C)C(=O)c1nc(-c2ccc3ncccc3c2)c(-c2ccccc2)nc1N [compound 120, (S)-3-amino-N-methyl-5-phenyl-N-(1-(pyridin-2-yl)ethyl)-6-(quinolin-6-yl)pyrazine-2-carboxamide]
7 | 68 |  |  | 0.0021 | CC(NC(=O)c1nc(-c2ccc3ncccc3c2)c(-c2ccccc2)nc1N)c1ccccc1 (stereo not drawn) [compound 121, 3-amino-5-phenyl-N-(1-phenylethyl)-6-(quinolin-6-yl)pyrazine-2-carboxamide]

Reference: US20220119367A1, “HETEROCYCLIC COMPOUNDS AS ADENOSINE ANTAGONISTS” (Nuvation Bio Inc., priority 2019, published 2022)
